Assay: xn = mol fraction of the nth substance listed
Settings: Liquid, Vibrating tube method

CC(C)=O [acetone] + CCCCCCC
Settings	mass density [kg/m3]
397.28 K, 64890 kPa, x1 = 0.7024	708.2
397.28 K, 69880 kPa, x1 = 0.7024	712.51
397.28 K, 74860 kPa, x1 = 0.7024	716.61
397.28 K, 74910 kPa, x1 = 0.492	698.27
397.28 K, 74910 kPa, x1 = 0.801	727.94
397.28 K, 74920 kPa, x1 = 0.611	707.37
397.28 K, 79830 kPa, x1 = 0.7024	720.53
397.28 K, 79900 kPa, x1 = 0.492	702.07
397.28 K, 84840 kPa, x1 = 0.7024	724.33
397.28 K, 84890 kPa, x1 = 0.492	705.69
397.28 K, 89820 kPa, x1 = 0.7024	727.97
397.28 K, 94800 kPa, x1 = 0.7024	731.49
397.28 K, 94850 kPa, x1 = 0.492	712.56
397.28 K, 99780 kPa, x1 = 0.7024	734.88
397.28 K, 99820 kPa, x1 = 0.801	746.56
397.28 K, 104760 kPa, x1 = 0.7024	738.15
397.28 K, 109780 kPa, x1 = 0.801	753.14
397.28 K, 114820 kPa, x1 = 0.7024	744.47
397.28 K, 114850 kPa, x1 = 0.492	725.01
397.28 K, 114850 kPa, x1 = 0.801	756.36
397.28 K, 114870 kPa, x1 = 0.611	734.74
397.28 K, 119800 kPa, x1 = 0.7024	747.44
397.28 K, 119860 kPa, x1 = 0.611	737.69
397.28 K, 124830 kPa, x1 = 0.7024	750.39
397.28 K, 124840 kPa, x1 = 0.492	730.68
397.28 K, 124840 kPa, x1 = 0.801	762.38
397.28 K, 124860 kPa, x1 = 0.611	740.54
397.28 K, 129790 kPa, x1 = 0.7024	753.19
397.28 K, 129840 kPa, x1 = 0.492	733.39
397.28 K, 129840 kPa, x1 = 0.611	743.3
397.29 K, 19850 kPa, x1 = 0.492	638.92
397.29 K, 24860 kPa, x1 = 0.492	646.54
397.29 K, 39850 kPa, x1 = 0.492	665.68
397.29 K, 49840 kPa, x1 = 0.492	676.28
397.29 K, 69930 kPa, x1 = 0.492	694.29
397.29 K, 89860 kPa, x1 = 0.492	709.18
397.29 K, 99830 kPa, x1 = 0.492	715.82
397.29 K, 104800 kPa, x1 = 0.492	718.94
397.29 K, 109740 kPa, x1 = 0.7024	741.31
397.29 K, 109770 kPa, x1 = 0.492	722
397.29 K, 119840 kPa, x1 = 0.492	727.87
407.2 K, 1850 kPa, x1 = 0.4	626.34
407.2 K, 1850 kPa, x1 = 0.8992	626.34
407.2 K, 5000 kPa, x1 = 0.4	635.78
407.2 K, 5000 kPa, x1 = 0.8992	635.78
407.2 K, 10000 kPa, x1 = 0.4	648.49
407.2 K, 10000 kPa, x1 = 0.8992	648.49
407.2 K, 14980 kPa, x1 = 0.4	659.29
407.2 K, 14980 kPa, x1 = 0.8992	659.29
407.2 K, 49890 kPa, x1 = 0.4	710.54
407.2 K, 49890 kPa, x1 = 0.8992	710.54
407.21 K, 1650 kPa, x1 = 0.611	594.88
407.21 K, 1660 kPa, x1 = 0.801	612.07
407.21 K, 4870 kPa, x1 = 0.611	604.63
407.21 K, 4870 kPa, x1 = 0.801	621.91
407.21 K, 9870 kPa, x1 = 0.611	617.29
407.21 K, 14860 kPa, x1 = 0.801	645.72
407.21 K, 14880 kPa, x1 = 0.611	627.98
407.21 K, 19850 kPa, x1 = 0.801	655.22
407.21 K, 19960 kPa, x1 = 0.4	668.77
407.21 K, 19960 kPa, x1 = 0.8992	668.77
407.21 K, 24940 kPa, x1 = 0.4	677.3
407.21 K, 24940 kPa, x1 = 0.8992	677.3
407.21 K, 29940 kPa, x1 = 0.4	685.05
407.21 K, 29940 kPa, x1 = 0.8992	685.05
407.21 K, 34930 kPa, x1 = 0.4	692.12
407.21 K, 34930 kPa, x1 = 0.8992	692.12
407.21 K, 39920 kPa, x1 = 0.4	698.68
407.21 K, 39920 kPa, x1 = 0.8992	698.68
407.21 K, 44900 kPa, x1 = 0.4	704.79
407.21 K, 44900 kPa, x1 = 0.8992	704.79
407.21 K, 54880 kPa, x1 = 0.4	715.92
407.21 K, 54880 kPa, x1 = 0.8992	715.92
407.21 K, 59880 kPa, x1 = 0.4	721.06
407.21 K, 59880 kPa, x1 = 0.8992	721.06
407.21 K, 64860 kPa, x1 = 0.4	725.91
407.21 K, 64860 kPa, x1 = 0.8992	725.91
407.21 K, 69840 kPa, x1 = 0.4	730.52
407.21 K, 69840 kPa, x1 = 0.8992	730.52
407.21 K, 74830 kPa, x1 = 0.4	734.95
407.21 K, 74830 kPa, x1 = 0.8992	734.95
407.21 K, 79810 kPa, x1 = 0.4	739.19
407.21 K, 79810 kPa, x1 = 0.8992	739.19
407.21 K, 84790 kPa, x1 = 0.4	743.24
407.21 K, 84790 kPa, x1 = 0.8992	743.24
407.21 K, 89780 kPa, x1 = 0.4	747.17
407.21 K, 89780 kPa, x1 = 0.8992	747.17
407.22 K, 1650 kPa, x1 = 0.492	588.49
407.22 K, 4850 kPa, x1 = 0.492	597.92
407.22 K, 9860 kPa, x1 = 0.801	634.81
407.22 K, 19860 kPa, x1 = 0.611	637.25
407.22 K, 24840 kPa, x1 = 0.492	637.87
407.22 K, 24850 kPa, x1 = 0.611	645.53
407.22 K, 24850 kPa, x1 = 0.801	663.77
407.22 K, 29850 kPa, x1 = 0.492	645.2
407.22 K, 29860 kPa, x1 = 0.801	671.47
407.22 K, 29870 kPa, x1 = 0.611	653.05
407.22 K, 34850 kPa, x1 = 0.801	678.52
407.22 K, 34860 kPa, x1 = 0.611	659.9
407.22 K, 39850 kPa, x1 = 0.801	685.05
407.22 K, 39860 kPa, x1 = 0.611	666.23
407.22 K, 44860 kPa, x1 = 0.801	691.11
407.22 K, 44870 kPa, x1 = 0.611	672.1
407.22 K, 49870 kPa, x1 = 0.611	677.58
407.22 K, 54850 kPa, x1 = 0.611	682.71
407.22 K, 59830 kPa, x1 = 0.611	687.58
407.22 K, 59840 kPa, x1 = 0.492	679.01
407.22 K, 59840 kPa, x1 = 0.801	707.14
407.22 K, 64930 kPa, x1 = 0.611	692.3
407.22 K, 69830 kPa, x1 = 0.801	716.45
407.22 K, 69920 kPa, x1 = 0.611	696.69
407.22 K, 74910 kPa, x1 = 0.611	700.88
407.22 K, 74920 kPa, x1 = 0.801	720.89
407.22 K, 79900 kPa, x1 = 0.611	704.88
407.22 K, 79920 kPa, x1 = 0.801	725.05
407.22 K, 84880 kPa, x1 = 0.611	708.71
407.22 K, 84890 kPa, x1 = 0.801	729.04
407.22 K, 89850 kPa, x1 = 0.611	712.41
407.22 K, 89860 kPa, x1 = 0.492	703.26
407.22 K, 89890 kPa, x1 = 0.801	732.88
407.22 K, 94740 kPa, x1 = 0.4	750.92
407.22 K, 94740 kPa, x1 = 0.8992	750.92
407.22 K, 94840 kPa, x1 = 0.611	715.96
407.22 K, 94870 kPa, x1 = 0.801	736.56
407.22 K, 99720 kPa, x1 = 0.4	754.58
407.22 K, 99720 kPa, x1 = 0.8992	754.58
407.22 K, 99820 kPa, x1 = 0.611	719.38
407.22 K, 99840 kPa, x1 = 0.801	740.12
407.22 K, 104690 kPa, x1 = 0.4	758.09
407.22 K, 104690 kPa, x1 = 0.8992	758.09
407.22 K, 104790 kPa, x1 = 0.611	722.68
407.22 K, 104820 kPa, x1 = 0.801	743.55
407.22 K, 109650 kPa, x1 = 0.4	761.5
407.22 K, 109650 kPa, x1 = 0.8992	761.5
407.22 K, 109770 kPa, x1 = 0.492	716.44
407.22 K, 109790 kPa, x1 = 0.801	746.89
407.22 K, 109860 kPa, x1 = 0.611	725.93
407.22 K, 114620 kPa, x1 = 0.4	764.8
407.22 K, 114620 kPa, x1 = 0.8992	764.8
407.22 K, 114770 kPa, x1 = 0.801	750.12
407.22 K, 114860 kPa, x1 = 0.492	719.55
407.22 K, 114870 kPa, x1 = 0.611	729.06
407.22 K, 119590 kPa, x1 = 0.4	768
407.22 K, 119590 kPa, x1 = 0.8992	768
407.22 K, 119840 kPa, x1 = 0.492	722.47
407.22 K, 119840 kPa, x1 = 0.801	753.32
407.22 K, 119850 kPa, x1 = 0.611	732.05
407.22 K, 124560 kPa, x1 = 0.4	771.11
407.22 K, 124560 kPa, x1 = 0.8992	771.11
407.22 K, 124850 kPa, x1 = 0.492	725.34
407.22 K, 124850 kPa, x1 = 0.611	735.01
407.22 K, 124850 kPa, x1 = 0.801	756.37
407.22 K, 129820 kPa, x1 = 0.4	774.33
407.22 K, 129820 kPa, x1 = 0.8992	774.33
407.22 K, 129840 kPa, x1 = 0.611	737.84
407.22 K, 129840 kPa, x1 = 0.801	759.34
407.23 K, 4820 kPa, x1 = 0.7024	611.92
407.23 K, 9850 kPa, x1 = 0.492	610.28
407.23 K, 14860 kPa, x1 = 0.492	620.71
407.23 K, 19860 kPa, x1 = 0.492	629.81
407.23 K, 24820 kPa, x1 = 0.7024	653.51
407.23 K, 29820 kPa, x1 = 0.7024	661.13
407.23 K, 34840 kPa, x1 = 0.492	651.87
407.23 K, 39860 kPa, x1 = 0.492	658.08
407.23 K, 44850 kPa, x1 = 0.492	663.81
407.23 K, 49840 kPa, x1 = 0.801	696.75
407.23 K, 49850 kPa, x1 = 0.492	669.19
407.23 K, 54850 kPa, x1 = 0.801	702.09
407.23 K, 54860 kPa, x1 = 0.492	674.25
407.23 K, 64830 kPa, x1 = 0.492	683.5
407.23 K, 64830 kPa, x1 = 0.801	711.9
407.23 K, 69930 kPa, x1 = 0.492	687.88
407.23 K, 74910 kPa, x1 = 0.492	691.98
407.23 K, 79890 kPa, x1 = 0.492	695.9
407.23 K, 84870 kPa, x1 = 0.492	699.66
407.23 K, 94840 kPa, x1 = 0.492	706.73
407.23 K, 99820 kPa, x1 = 0.492	710.09
407.23 K, 104790 kPa, x1 = 0.492	713.3
407.23 K, 129830 kPa, x1 = 0.492	728.11
407.24 K, 1620 kPa, x1 = 0.7024	602.1
407.24 K, 9830 kPa, x1 = 0.7024	624.8
407.24 K, 14840 kPa, x1 = 0.7024	635.66

— the NIST ThermoML archive (doi:10.1016/j.fluid.2010.10.028)
